Common to all, as to assay type: cell-based
The test system of assay [1] is HeLa galactose cells. Kind of assay: Cell growth and proliferation assay of HeLa galactose cells (crystal violet). As to conditions: 72 hours incubation, crystal violet staining, absorbance at 590 nm. Summed up:
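HeLa cells adapted stepwise over three weeks to glucose-free galactose medium plus 10 mM galactose, seeded at 2000 cells/well and treated 72 h with compounds (0.001% DMSO) at 37° C. Growth read by crystal violet staining, dye solubilized and absorbance at 590 nm; IC50 from concentration-response curves.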

Assay [2] has as its system Oxygen consumption (mitochondrial function). In words: Oxygen consumption assay (MitoXpress probe). Conditions: MitoXpress probe signal, kinetic analysis at 37° C. for 5 hours, compared to untreated cells. Summed up: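 Cells seeded at 50′000/well, after 24 h given fresh media with inhibitor at a range of concentrations, then MitoXpress probe under mineral oil. Kinetic TRF read (380 nm excitation, 650 or 665 nm emission) at 37° C. for 5 hours. IC50 = concentration inhibiting 50% of probe signal versus untreated cells.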

Assay [3] relates to HeLa glucose versus HeLa galactose cells. Kind of assay: Cell growth assays (crystal violet) in HeLa galactose and HeLa glucose cells. Conditions: FIG. 1, crystal violet cell growth assay. The procedure: The cervical tumor cell line HeLa (ATCC, CCL-2) was cultivated in DMEM medium (Invitrogen cat. no. 11971, 4.5 g/L high glucose) containing 10% fetal calf serum (Sigma cat. no. F9665) and 1% Penicillin/Streptomycin (Sigma cat. no. P0781) at 37° C. in 5% CO2. HeLa galactose cells (i.e. HeLa cells that grow in high concentrations of galactose) were generated from HeLa glucose cells (i.e. HeLa cells that grow in high concentrations of glucose) by gradually changing the amount of glucose in the media to zero glucose in the presence of galactose as a sugar source (50% galactose/50% glucose media for one week, then 75% galactose/25% glucose media for one week, to 100% galactose media in the third week). Galactose media (Invitrogen cat. no. 11966) was supplemented with 10 mM galactose (Sigma cat. no. G5388).
Cell Growth and Proliferation Assay of HeLa Galactose and Glucose Cells
HeLa galactose cells and HeLa glucose cells were seeded in 96 well plates (TPP, cat. no 92696) at 2000 and 1500 cells/well, respectively, in 100 μL of complete medium. […] Absorbance at 590 nm was measured using a SpectraMax® 250 plate reader (Molecular Devices). Antiproliferative/growth inhibition IC50s were calculated from concentration-response curves using GraphPad Prism software. […]

Consider 33 molecules from patent US20190142810A1, “MITOCHONDRIAL INHIBITORS FOR THE TREATMENT OF PROLIFERATION DISORDERS” (Basilea Pharmaceutica International AG, priority 2016, published 2019).

For the molecule `Cc1nsc(NC(=O)N2CCC(=Cc3ncc(Cl)cc3F)CC2)n1` [Example 67], the IC50 in assay [1] (Homo sapiens, HeLa, 72 h) is 125 nM; in assay [2] (5 h) it was 233 nM.

Consider `Nc1nsc(NC(=O)N2CCC(Cc3ccc(Cl)cc3F)CC2)n1` [Example 108, N-(3-amino-1,2,4-thiadiazol-5-yl)-4-[(4-chloro-2-fluoro-phenyl)methyl]piperidine-1-carboxamide], for which the 50% inhibitory concentration (IC50) amounted to 96 nM in assay [1] (Homo sapiens, HeLa, 72 h) and 132 nM in assay [2] (5 h).

With `Cc1nsc(NC(=O)N2CCC(Cc3ccc(C)c(C)c3)CC2)n1` [Example 28, 4-[(3,4-dimethylphenyl)methyl]-N-(3-methyl-1,2,4-thiadiazol-5-yl)piperidine-1-carboxamide], the half-inhibitory concentration (IC50) in assay [1] (Homo sapiens, HeLa, 72 h) is 249 nM; in assay [2] (5 h), 334 nM.

Take `O=C(Nc1nc(CCO)ns1)N1CCC(Cc2ccc(Cl)cc2F)CC1` [Example 96]: the half-maximal inhibitory concentration (IC50) in assay [1] (Homo sapiens, HeLa, 72 h) came to 208 nM; in assay [2] (5 h), 361 nM.

Turning to Antimycin A, the “differential sensitivity in HeLa glucose versus HeLa galactose cell growth” value in assay [3] is recorded as “differential sensitivity in HeLa glucose versus HeLa galactose cell growth is exhibited”.

`Cc1cc(NC(=O)N2CCC(Cc3c(F)cc(N(C)C)cc3F)CC2)sn1` [Example 151, 4-[[4-(dimethylamino)-2,6-difluoro-phenyl]methyl]-N-(3-methylisothiazol-5-yl)piperidine-1-carboxamide]: the IC50 came out at 20 nM in assay [1] (Homo sapiens, HeLa, 72 h) and 42 nM in assay [2] (5 h).

`Cc1ccc(CC2CCN(C(=O)Nc3nc(C)ns3)CC2)nc1` [Example 15]: the half-maximal inhibitory concentration (IC50) was found to be 267 nM in assay [1] (Homo sapiens, HeLa, 72 h) and 412 nM in assay [2] (5 h).

In the case of `Cc1nsc(NC(=O)N2CCC(Cc3ccc(OC(F)(F)F)cc3)CC2)n1` [Example 53], the IC50 in assay [1] (Homo sapiens, HeLa, 72 h) is 329 nM; in assay [2] (5 h), 890 nM.

With `Cc1nsc(NC(=O)N2CCC(Cc3ccc(Cl)cc3C)CC2)n1` [Example 14], the IC50 worked out at 146 nM in assay [1] (Homo sapiens, HeLa, 72 h) and 200 nM in assay [2] (5 h).

Take `Cc1nsc(NC(=O)N2CCC(=Cc3ccc(CO)cc3F)CC2)n1` [Example 89, 4-[[2-fluoro-4-(hydroxymethyl)phenyl]methylene]-N-(3-methyl-1,2,4-thiadiazol-5-yl)piperidine-1-carboxamide]: the IC50 in assay [1] (Homo sapiens, HeLa, 72 h) was found to be 228 nM; in assay [2] (5 h), 352 nM.

As for `CNc1ccc(C=C2CCN(C(=O)Nc3nc(C)ns3)CC2)c(F)c1` [Example 109], the IC50 in assay [1] (Homo sapiens, HeLa, 72 h) is 55 nM; in assay [2] (5 h), 103 nM.

In the case of `Cc1nsc(NC(=O)N2CCC(=Cc3c(F)cc(N(C)C4CCOC4)cc3F)CC2)n1` (centres unmarked) [Example 157], the IC50 turned out to be 51 nM in assay [1] (Homo sapiens, HeLa, 72 h) and 109 nM in assay [2] (5 h).

With `Cc1nsc(NC(=O)N2CCC(=Cc3c(F)cc(N(C)C)cc3F)CC2)n1` [Example 112, 4-[[4-(dimethylamino)-2,6-difluoro-phenyl]methylene]-N-(3-methyl-1,2,4-thiadiazol-5-yl)piperidine-1-carboxamide], the IC50 in assay [1] (Homo sapiens, HeLa, 72 h) is 12 nM; in assay [2] (5 h), 23 nM.

For the molecule `Cc1nsc(NC(=O)N2CCN(Cc3ccc(Cl)cc3F)CC2)n1` [Example 50, 4-[(4-chloro-2-fluoro-phenyl)methyl]-N-(3-methyl-1,2,4-thiadiazol-5-yl)piperazine-1-carboxamide], the half-maximal inhibitory concentration (IC50) came to 197 nM in assay [1] (Homo sapiens, HeLa, 72 h) and 255 nM in assay [2] (5 h).

As for `Cc1nsc(NC(=O)N2CCC(Cc3cc(C)c(Cl)cc3F)CC2)n1` [Example 64], the IC50 in assay [1] (Homo sapiens, HeLa, 72 h) amounted to 89 nM; in assay [2] (5 h) it was 187 nM.

As to `Cc1nsc(NC(=O)N2CCC(C(=O)c3ccc(Br)cc3F)CC2)n1` [Example 141, 4-(4-bromo-2-fluoro-benzoyl)-N-(3-methyl-1,2,4-thiadiazol-5-yl)-piperidine-1-carboxamide], the IC50 in assay [1] (Homo sapiens, HeLa, 72 h) was determined as 29 nM; in assay [2] (5 h) it was 56 nM.

As to `Cc1nsc(NC(=O)N2CCC(Cc3ccc(F)cc3F)CC2)n1` [Example 60, 4-[(2,4-difluorophenyl)methyl]-N-(3-methyl-1,2,4-thiadiazol-5-yl)piperidine-1-carboxamide], the IC50 in assay [1] (Homo sapiens, HeLa, 72 h) is 53 nM; in assay [2] (5 h), 68 nM.

Turning to `O=C(Nc1ccnc(C2CC2)c1)N1CCC(=Cc2ccc(Cl)cc2F)CC1` [Example 183, 4-[(4-chloro-2-fluoro-phenyl)methylene]-N-(2-cyclopropyl-4-pyridyl)piperidine-1-carboxamide], the half-inhibitory concentration (IC50) came out at 21 nM in assay [1] (Homo sapiens, HeLa, 72 h) and 42 nM in assay [2] (5 h).

Consider `COc1ccc(C(=O)C2CCN(C(=O)Nc3nc(C)ns3)CC2)cc1` [Example 76], for which the IC50 turned out to be 190 nM in assay [1] (Homo sapiens, HeLa, 72 h) and 332 nM in assay [2] (5 h).

Take `Cc1nsc(NC(=O)N2CCC(Cc3c(F)cc(C#N)cc3F)CC2)n1` [Example 129, 4-[(4-cyano-2,6-difluoro-phenyl)methyl]-N-(3-methyl-1,2,4-thiadiazol-5-yl)piperidine-1-carboxamide]: the half-maximal inhibitory concentration (IC50) was 16 nM in assay [1] (Homo sapiens, HeLa, 72 h) and 20 nM in assay [2] (5 h).

Take `Cc1nsc(NC(=O)N2CCC(Cc3c(F)cc(C(F)(F)F)cc3F)CC2)n1` [Example 40, 4-[[2,6-difluoro-4-(trifluoromethyl)phenyl]methyl]-N-(3-methyl-1,2,4-thiadiazol-5-yl)piperidine-1-carboxamide]: the IC50 in assay [1] (Homo sapiens, HeLa, 72 h) was determined as 32 nM; in assay [2] (5 h), 48 nM.

On to `Cc1nsc(NC(=O)N2CCC(Cc3c(F)cc(O)cc3F)CC2)n1` [Example 100], for which the concentration for half-maximal inhibition (IC50) in assay [1] (Homo sapiens, HeLa, 72 h) amounted to 200 nM; in assay [2] (5 h), 402 nM.

In the case of `Cc1nsc(NC(=O)N2CC/C(=C\c3ccc(Cl)cc3F)C(C)C2)n1` (centres unmarked) [Example 82, (4E)-4-[(4-chloro-2-fluoro-phenyl)methylene]-3-methyl-N-(3-methyl-1,2,4-thiadiazol-5-yl)piperidine-1-carboxamide], the IC50 is 31 nM in assay [1] (Homo sapiens, HeLa, 72 h) and 78 nM in assay [2] (5 h).

Turning to `COc1ccc(C=C2CCCN(C(=O)Nc3nc(C)ns3)CC2)c(F)c1` [Example 103], the 50% inhibitory concentration (IC50) was determined as 71 nM in assay [1] (Homo sapiens, HeLa, 72 h) and 156 nM in assay [2] (5 h).

For the molecule `Cc1cc(NC(=O)N2CCC(=Cc3c(F)cc(C(F)(F)F)cc3F)CC2)ccn1` [Example 138, 4-[[2,6-difluoro-4-(trifluoromethyl)phenyl]methylene]-N-(2-methyl-4-pyridyl)piperidine-1-carboxamide], the IC50 was 21 nM in assay [1] (Homo sapiens, HeLa, 72 h) and 147 nM in assay [2] (5 h).

On to `Cc1nsc(NC(=O)N2CCC(Cc3ccc(C(F)(F)F)cc3F)CC2)n1` [Example 33], for which the IC50 amounted to 70 nM in assay [1] (Homo sapiens, HeLa, 72 h) and 102 nM in assay [2] (5 h).

As for `Cc1cc(NC(=O)N2CCC(C(=O)c3c(F)cc(C(F)(F)F)cc3F)CC2)ccn1` [Example 173], the concentration for half-maximal inhibition (IC50) in assay [1] (Homo sapiens, HeLa, 72 h) amounted to 54 nM; in assay [2] (5 h), 136 nM.

With `Cc1nsc(NC(=O)N2CCC(Cc3ccc(C#N)cc3F)CC2)n1` [Example 32], the IC50 in assay [1] (Homo sapiens, HeLa, 72 h) was 43 nM; in assay [2] (5 h) it was 116 nM.

In the case of `Cc1nsc(NC(=O)N2CCC(Cc3ccc(Cl)cc3F)C(C)C2)n1` (single isomer, unassigned) [Example 84b, 4-[(4-chloro-2-fluoro-phenyl)methyl]-3-methyl-N-(3-methyl-1,2,4-thiadiazol-5-yl)piperidine-1-carboxamide], the concentration for half-maximal inhibition (IC50) worked out at 75 nM in assay [1] and 121 nM in assay [2].

`COc1cc(F)c(C=C2CCN(C(=O)Nc3nc(C)ns3)CC2)cn1` [Example 69]: the concentration for half-maximal inhibition (IC50) in assay [1] (Homo sapiens, HeLa, 72 h) turned out to be 91 nM; in assay [2] (5 h), 119 nM.

For `Cc1nsc(NC(=O)N2CCCC(=Cc3ccc(C#N)cc3F)CC2)n1` [Example 117], the IC50 in assay [1] (Homo sapiens, HeLa, 72 h) was found to be 77 nM; in assay [2] (5 h) it was 145 nM.

Take `Cc1nsc(NC(=O)N2CCC(Cc3ccc(Cl)cc3N)CC2)n1` [Example 24]: the half-inhibitory concentration (IC50) in assay [1] (Homo sapiens, HeLa, 72 h) amounted to 138 nM; in assay [2] (5 h), 307 nM.

For the molecule `Cc1cc(NC(=O)N2CCC(Cc3ccc(Cl)cc3F)CC2)sn1` [Example 63, 4-[(4-chloro-2-fluoro-phenyl)methyl]-N-(3-methylisothiazol-5-yl)piperidine-1-carboxamide], the 50% inhibitory concentration (IC50) amounted to 20 nM in assay [1] (Homo sapiens, HeLa, 72 h) and 56 nM in assay [2] (5 h).
